Laboratory results from patent US5972898A, “3',3-N-bis-substituted macrolide LHRH antagonists” (Abbott Laboratories, priority 1998, dated 1999).

Target: T1, LHRH rat pituitary receptor (Rattus norvegicus, UniProt P30969)
T1 construct: from tissue; host or cells: rat pituitary
T1 sequence (P30969 1-327): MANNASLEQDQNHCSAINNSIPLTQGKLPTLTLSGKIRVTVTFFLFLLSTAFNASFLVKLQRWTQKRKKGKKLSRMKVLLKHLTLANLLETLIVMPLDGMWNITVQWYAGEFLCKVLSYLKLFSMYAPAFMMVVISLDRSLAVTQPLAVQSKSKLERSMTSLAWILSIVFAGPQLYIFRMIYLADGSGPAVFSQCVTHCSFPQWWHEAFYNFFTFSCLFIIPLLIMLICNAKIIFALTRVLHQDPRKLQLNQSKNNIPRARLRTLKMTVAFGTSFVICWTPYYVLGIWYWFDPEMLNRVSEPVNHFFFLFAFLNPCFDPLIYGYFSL
Assay: LHRH rat pituitary receptor binding (pKI)
Settings: in vitro
Description: Representative compounds of the present invention were evaluated in in vitro tests for LHRH rat pituitary receptor binding (pKI) and for LH inhibition from rat pituitary cells for antagonist potency (pA2). […] The receptor binding affinity (pKI) is the negative equilibrium dissociation constants.

| pKI (receptor binding affinity) | Compound |
| --- | --- |
| 8.34 | 3',3 -N-Bisdesmethyl-3'-N-cyclopropylmethyl-3'-N-4-hydroxymethyl-(2-furylmethyl-11-Deoxy-11-[carboxy-(3,4-dichlorophenethylamino)]-6-O-methyl-erythromycinA 11,12-(cyclic carbamate) [Example 21] |
| 8.00 | 3',3'-N-Bisdesmethyl-3'-N-cyclopropylmethyl-3'-N-(2-furyl)methyl-11-deoxy-11-[carboxy-(3-chloro-4-fluorophenethylamino)]-6-O-methyl-erythromycin A 11,12-(cyclic carbamate) [Example 24] |
| 8.98 | 3',3'-N-Bisdesmethyl-3'-N-cyclopropylmethyl-3'-N-(4hydroxymethyl-2-furyl)methyl-11-deoxy-11-[carboxy-(3-chloro-4-fluorophenethylamino)]-6-O-methyl-erythromycin A 11,12-(cyclic carbamate) [Example 23] |
| 8.58 | 3',3'-N-Bisdesmethyl-3'-N-cyclopropylmethyl-3'-N-(6-methyl-2-pyridyl)methyl-11-deoxy-11-[carboxy-(3-chloro-4-fluorophenethylamino)]-6-O-methyl-erythromycin A 11,12-(cyclic carbamate) [Example 25] |
| 8.56 | CC[C@H]1OC(=O)[C@H](C)[C@@H](O[C@H]2C[C@@](C)(OC)[C@@H](O)[C@H](C)O2)[C@H](C)[C@@H](O[C@@H]2O[C@H](C)C[C@H](N(CC3CC3)C(C)C)[C@H]2O)[C@](C)(OC)C[C@@H](C)C(=O)[C@H](C)[C@H]2N(CCc3ccc(Cl)cc3)C(=O)O[C@]12C [Example 7, 3',3'-N-Bisdesmethyl-3'-N-cyclopropylmethyl-3'-N-isopropyl-11-deoxy-11-carboxy-(4-chlorophenethylamino)]-6-O-methyl-erythromycin A 11,12-(cyclic carbamate)] |
| 9.08 | CC[C@H]1OC(=O)[C@H](C)[C@@H](O[C@H]2C[C@@](C)(OC)[C@@H](O)[C@H](C)O2)[C@H](C)[C@@H](O[C@@H]2O[C@H](C)C[C@H](N(CC3CC3)C3CCC3)[C@H]2O)[C@](C)(OC)C[C@@H](C)C(=O)[C@H](C)[C@H]2N(CCc3ccc(F)c(Cl)c3)C(=O)O[C@]12C [Example 19, 3',3'-N-Bisdesmethyl-3'-N-cyclobutyl-3'-N-cyclopropylmethyl-11-deoxy-11-[carboxy-(3-chloro-4-fluorophenethylamino)]-6-O-methyl-erythromycin A 11,12-(cyclic carbamate)] |

| Compound | pKI (receptor binding affinity) |
| --- | --- |
| 3',3'-N-Bisdesmethyl-3'-N-cyclopentyl-3'-N-cyclopropylmethyl-11-deoxy-11-[carboxy-(3-chloro-4-fluorophenethylamino)]-6-O-methyl-erythromycin A 11,12-(cyclic carbamate) [Example 16] | 8.87 |

Same assay, conditions: in vitro, read-out: pKI (receptor binding affinity) (converted)

| Ki | Compound |
| --- | --- |
| 18.6 nM | CC[C@H]1OC(=O)[C@H](C)[C@@H](O[C@H]2C[C@@](C)(OC)[C@@H](O)[C@H](C)O2)[C@H](C)[C@@H](O[C@@H]2O[C@H](C)C[C@H](N(CC3CC3)CC3CC3)[C@H]2O)[C@](C)(OC)C[C@@H](C)C(=O)[C@H](C)[C@H]2N(CCc3ccc(Cl)c(Cl)c3)C(=O)O[C@]12C [Example 1] |
| 4.17 nM | CC[C@H]1OC(=O)[C@H](C)[C@@H](O[C@H]2C[C@@](C)(OC)[C@@H](O)[C@H](C)O2)[C@H](C)[C@@H](O[C@@H]2O[C@H](C)C[C@H](N(CC3CC3)CC3CC3)[C@H]2O)[C@](C)(OC)C[C@@H](C)C(=O)[C@H](C)[C@H]2N(CCc3ccc(Cl)cc3)C(=O)O[C@]12C [Example 3, 3',3'-N-Bisdesmethyl-3',3'-N-biscyclolpropylmethyl-11-deoxy-11-[carboxy-(4-chlorophenetlylamino)]-6-methyl-eryromycin A 11,12-(cyclic carbamate)] |
| 8.32 nM | CCCN(C(C)C)[C@H]1C[C@@H](C)O[C@@H](O[C@@H]2[C@@H](C)[C@H](O[C@H]3C[C@@](C)(OC)[C@@H](O)[C@H](C)O3)[C@@H](C)C(=O)O[C@H](CC)[C@@]3(C)OC(=O)N(CCc4ccc(Cl)cc4)[C@@H]3[C@@H](C)C(=O)[C@H](C)C[C@@]2(C)OC)[C@@H]1O [Example 6, 3',3'-N-Bisdesmethyl-3'-N-isopropyl-3'-N-propyl-11-deoxy-11-[carboxy-(4-chlorophenethylamino)]-6-O-methyl-erythromycin A 11,12-(cyclic carbamate)] |
| 2.51 nM | CC[C@H]1OC(=O)[C@H](C)[C@@H](O[C@H]2C[C@@](C)(OC)[C@@H](O)[C@H](C)O2)[C@H](C)[C@@H](O[C@@H]2O[C@H](C)C[C@H](N(CC)C(C)C)[C@H]2O)[C@](C)(OC)C[C@@H](C)C(=O)[C@H](C)[C@H]2N(CCc3ccc(Cl)cc3)C(=O)O[C@]12C [Example 8, 3',3'-N-Bisdesmethyl-3'-N-ethyl-3'-N-isopropyl-11-deoxy-11-[carboxy-(4-chlorophenethylamino)]-6-O-methyl-erythromycin A 11,12-(cyclic carbamate)] |
| 6.31 nM | CC[C@H]1OC(=O)[C@H](C)[C@@H](O[C@H]2C[C@@](C)(OC)[C@@H](O)[C@H](C)O2)[C@H](C)[C@@H](O[C@@H]2O[C@H](C)C[C@H](N(CC3CCC3)CC3CC3)[C@H]2O)[C@](C)(OC)C[C@@H](C)C(=O)[C@H](C)[C@H]2N(CCc3ccc(Cl)cc3)C(=O)O[C@]12C [Example 9, 3',3'-N-Bisdesmethyl-3'-N-cyclobutylmethyl-3'-N-cyclopropylmethyl-11-deoxy-11-[carboxy-(4-chlorophenethylamino)]-6-methyl-erythromycin A 11,12-(cycliccarbamate)] |
| 1.41 nM | CC[C@H]1OC(=O)[C@H](C)[C@@H](O[C@H]2C[C@@](C)(OC)[C@@H](O)[C@H](C)O2)[C@H](C)[C@@H](O[C@@H]2O[C@H](C)C[C@H](N(CC3CC3)CC3CC3)[C@H]2O)[C@](C)(OC)C[C@@H](C)C(=O)[C@H](C)[C@H]2N(CCc3ccc(OC)cc3)C(=O)O[C@]12C [Example 10, 3',3'-N-Bisdesmethyl-3',3'-N-biscyclopropylmethyl-11-deoxy-11-[carboxy-(4-methoxyphenethylamino)]-6-O-methyl-erythromycin A 11,12-(cyclic carbamate)] |
| 2.19 nM | CC[C@H]1OC(=O)[C@H](C)[C@@H](O[C@H]2C[C@@](C)(OC)[C@@H](O)[C@H](C)O2)[C@H](C)[C@@H](O[C@@H]2O[C@H](C)C[C@H](N(CC3CC3)CC3CC3)[C@H]2O)[C@](C)(OC)C[C@@H](C)C(=O)[C@H](C)[C@H]2N(CCc3ccc(F)cc3)C(=O)O[C@]12C [Example 11, 3',3'-N-Bisdesmethyl-3',3'-N-biscyclopropylmethyl-11-deoxy-11-[carboxy-(4-fluorophenethylamino)]-6-O-methyl-erthromycin A 11,12-(cyclic carbamate)] |
| 1 nM | CC[C@H]1OC(=O)[C@H](C)[C@@H](O[C@H]2C[C@@](C)(OC)[C@@H](O)[C@H](C)O2)[C@H](C)[C@@H](O[C@@H]2O[C@H](C)C[C@H](N(C3CCC3)C3CCC3)[C@H]2O)[C@](C)(OC)C[C@@H](C)C(=O)[C@H](C)[C@H]2N(CCc3ccc(Cl)c(F)c3)C(=O)O[C@]12C [Example 12, 3',3'-N-Bisdesmethyl-3',3'-N-biscyclobutyl-11-deoxy-11-[carboxy-(4-chloro-3-fluorophenethylamino)]-O-methl-erythromycin A 11,12-(cyclic carbamate)] |
| 1.26 nM | CC[C@H]1OC(=O)[C@H](C)[C@@H](O[C@H]2C[C@@](C)(OC)[C@@H](O)[C@H](C)O2)[C@H](C)[C@@H](O[C@@H]2O[C@H](C)C[C@H](N(CC3CC3)CC3CC3)[C@H]2O)[C@](C)(OC)C[C@@H](C)C(=O)[C@H](C)[C@H]2N(CCc3ccc(F)c(Cl)c3)C(=O)O[C@]12C [Example 15, 3',3'-N-Bisdesmethyl-3',3'-N-biscyclopropylmethyl-11-deoxy-11-[carboxy-(3-chloro-4-fluorophenetlamino)]-6-O-methyl-erythromycin A 11,12-(cyclic carbamate)] |
| 3.98 nM | CC[C@H]1OC(=O)[C@H](C)[C@@H](O[C@H]2C[C@@](C)(OC)[C@@H](O)[C@H](C)O2)[C@H](C)[C@@H](O[C@@H]2O[C@H](C)C[C@H](N(CCCc3ccccn3)CCCc3ccccn3)[C@H]2O)[C@](C)(OC)C[C@@H](C)C(=O)[C@H](C)[C@H]2N(CCc3ccc(Cl)c(Cl)c3)C(=O)O[C@]12C [Example 20, 3',3'-N-Bisdesmethyl-3',3'-N-bis-[3-(2-pyridyl)-propyl]-11-deoxy-11-[carboxy-(3,4-dichlorophenethylamino)]-6-O-methyl-erythromycin A 11,12-(cyclic carbamate)] |
| 1.91 nM | CC[C@H]1OC(=O)[C@H](C)[C@@H](O[C@H]2C[C@@](C)(OC)[C@@H](O)[C@H](C)O2)[C@H](C)[C@@H](O[C@@H]2O[C@H](C)C[C@H](N(CCCc3ccncc3)CC3CC3)[C@H]2O)[C@](C)(OC)C[C@@H](C)C(=O)[C@H](C)[C@H]2N(CCc3ccc(Cl)c(Cl)c3)C(=O)O[C@]12C [Example 22, 3',3'-N-Bisdesmethyl-3'-N-cyclopropylmethyl-3'-N-[3-(4-pyridyl)propyl]-11-deoxy-11-[carboxy-(3,4-dichlorophenethylamino)]-6-O-methyl-erythromycin A 11,12-(cyclic carbamate)] |
